Patent publication US12398102B2, “Formulation for soft anticholinergic analogs” (BODOR LABORATORIES, INC., priority 2014, dated 2025)

Assays:
[1] = Stability of approximately 2% BBI-4000 in four solvent systems (HPLC); format: physicochemical; conditions: for BBI-4000 Assay, Change from Baseline (40° C./75%), reduction: Day 7
Protocol: Various formulations of approximately 2% BBI-4000 were made and their stabilities assessed. The solvent systems were as follows: • (a) solvent content: 100% water; • (b) solvent content: 60% water/40% ethanol; • (c) solvent content: 30% water/70% ethanol; • (d) solvent content: 100% ethanol. Each sample was assessed at baseline; after 7 days at 25° C./60% humidity; and after 7 days at 40° C./75% humidity. The percentage change from baseline for 40° C. after 7 days was calculated in each case. HPLC analysis was conducted as described in EXAMPLE 2 below.
There is clearly a dramatic difference in the stability of the anhydrous ethanol formulation compared to the water-containing formulations.

[2] = HPLC assay and impurities of aqueous BBI-4000 gel formulations at differing pH; format: physicochemical; conditions: Day 7
Protocol: The standards were prepared in duplicate by weighing 2.0±0.1 mg of BBI-4000 into 1 mL volumetric flasks. Dissolved and diluted to volume with acetonitrile and mixed by inversion.
Gel samples were prepared in duplicate at a target concentration of 2 mg/ml in a 5-mL volumetric flask. Added 1.5 ml H2O and mixed to disperse the sample. Diluted to volume with acetonitrile and filtered an aliquot through a syringe filter.
The liquid chromatographic system was set-up as follows: • HPLC Column: XBridge Shield RP18, 4.6×150 mm, 3.5 μm • Column Temp.: 25±1° C. • Sample Temp.: ambient • Flow Rate: 1.5 mL/min • Injection Volume: 10 μL • UV Detection: 220 nm • Run Time: 20 minutes

[3] = Toxicokinetics (PK samples) in the 14-day Göttingen Minipig study; format: in vivo, Göttingen Minipigs
Protocol: (§1) All groups received 2 mL of gel formulation, once a day, for 14 consecutive days, applied to approximately 10% of their body surface area on their back.
(§2) The study included daily observations of the site of application and scoring of erythema and edema (if present), daily general examinations including heart rate as well as pupil size assessments at days 1, 2, 3, 5, 7, 10 and 14. The frequent observations of heart rate and pupil size were intended to identify any potential systemic anticholinergic effect. Main organs were evaluated during necropsy and histopathology evaluation was completed for treated and untreated skin. Blood samples for chemistry and hematology analysis were collected as well as PK samples.

Göttingen Minipigs = test: 14-day dermal and systemic toxicity study in Göttingen Minipigs; conditions: anhydrous composition, 14 days, dermal
Protocol: as §1, §2
The estimated BBI-4000 dose applied to the skin in this study was 40 mg/kg/day for Group 3 and 20 mg/kg/day for Group 2.

[4] = test system: subjects with axillary hyperhidrosis; test: Study BBI-4000-CL-101: efficacy, gravimetric sweat production and HDSS; format: in vivo, human
Protocol: Efficacy was assessed by the change in gravimetrically measured sweat production and the change in hyperhidrosis disease severity scale (HDSS) from baseline to Day 15 (end of therapy).
For the gravimetric assessment, sweat production was measured by placing filter paper (pre-weighed) on the axilla for 5 minutes while the subject was in a semi-reclining position at room temperature. The filter paper was covered with plastic during exposure to the axilla, and was then weighed following the 5-minute exposure period to calculate the amount of sweat produced.
For the HDSS, subjects rated the severity of their hyperhidrosis on a 4-point scale (1,2, 3, or 4) based on the level of interference with their daily activities.

[5] = solvent 100% ethanol, Day 7 @ 25° C./60%

## CCOC(=O)C[N@+]1(C)CCC(OC(=O)[C@](O)(c2ccccc2)C2CCCC2)C1.[Br-] (stereo partly drawn) [BBI-4000, (2R,3′R) 3-(2-cyclopentyl-2-phenyl-2-hydroxyacetoxy)-1-(ethoxycarbonylmethyl)-1-methylpyrrolidinium bromide]
[1]; 100% ethanol (absolute or anhydrous), 7 days at 40° C.
  Stability in words: baseline amount of BBI-4000 retained: essentially maintained the baseline amount of BBI-4000
[1]; solvent 30% water, 70% ethanol
  BBI-4000 Assay, Change from Baseline (40° C./75%), reduction: reduction 5%
[1]; solvent 30% water, 70% ethanol, Day 7 @ 25° C./60%
  BBI-4000 Main Hydrolysis Products (RRT-0.79-0.84): 0.84%
[1]; solvent 30% water, 70% ethanol, Day 7 @ 40° C./75%
  BBI-4000 Main Hydrolysis Products (RRT-0.79-0.84): 3.50%
[1]; solvent 30% water, 70% ethanol, baseline
  BBI-4000 Main Hydrolysis Products (RRT-0.79-0.84): 0
[1]; solvent 60% water, 40% ethanol
  BBI-4000 Assay, Change from Baseline (40° C./75%), reduction: reduction 5%
[1]; solvent 60% water, 40% ethanol, Day 7 @ 25° C./60%
  BBI-4000 Main Hydrolysis Products (RRT-0.79-0.84): 0.83%
[1]; solvent 60% water, 40% ethanol, Day 7 @ 40° C./75%
  BBI-4000 Main Hydrolysis Products (RRT-0.79-0.84): 3.40%
[1]; solvent 60% water, 40% ethanol, baseline
  BBI-4000 Main Hydrolysis Products (RRT-0.79-0.84): 0
[1]; solvent 100% ethanol
  BBI-4000 Assay, Change from Baseline (40° C./75%), reduction: reduction <1%
[1]; [5]
  BBI-4000 Assay: 2%
  BBI-4000 Main Hydrolysis Products (RRT-0.79-0.84): 0
[1]; solvent 100% ethanol, Day 7 @ 40° C./75%
  BBI-4000 Main Hydrolysis Products (RRT-0.79-0.84): 0
[1]; solvent 100% ethanol, baseline
  BBI-4000 Main Hydrolysis Products (RRT-0.79-0.84): 0
[1]; solvent 100% water
  BBI-4000 Assay, Change from Baseline (40° C./75%), reduction: reduction 9.5%
[1]; solvent 100% water, Day 7 @ 25° C./60%
  BBI-4000 Main Hydrolysis Products (RRT-0.79-0.84): 1.90%
[1]; solvent 100% water, Day 7 @ 40° C./75%
  BBI-4000 Assay: 1.80%
[1]; solvent 100% water, baseline
  BBI-4000 Main Hydrolysis Products (RRT-0.79-0.84): 0
[2]
  Stability of the aqueous formulation system, in words: lack of stability of this formulation system
[3]; after Day-14 dosing, minipig receiving 20% BBI-4000
  Time at which the highest concentration was observed: 2 h
[3]; dermal 10% and 20% gel, 14 days
  Systemic exposure (PK analysis): variable, dose related systemic exposure
Göttingen Minipigs
  Histopathology analysis of treated skin: unremarkable and identical to non-treated and vehicle treated skin
[4]; Cohort 2, small sample size, no definitive conclusion
  Comparison of 10% gel and 5% gel (sweat reduction and HDSS improvement): BBI-4000 10% gel performed better than BBI-4000 5% gel
[4]; Day 15, 5% and 10% gel aggregated (8 of 12)
  Subjects reporting a >2-point improvement in HDSS: 67%
[4]; Day 15, 5% and 10% gel aggregated (9 of 12)
  Proportion of subjects with at least a 50% reduction in sweat production: 75%
